Experimental findings from patent publication US11905294B2, “Imidazo[1,5-a]pyrazine derivatives as PI3Kδ inhibitors” (BEIGENE, LTD., priority 2017, dated 2024) are described below.

What all share (format): biochemical
One experiment deals with PI3K (p110β/p85α) (Homo sapiens, UniProt P42338). The experiment is described as follows: PI3Kβ assay (ADP-Glo Kinase Assay). As to conditions: read-out: Enzyme activity IC50 PI3Kβ.
The next experiment deals with PI3K (p110α/p85α) (Homo sapiens, UniProt P42336). As to the kind of experiment: PI3Kα assay (ADP-Glo Kinase Assay). As to conditions: recombinant enzyme; IC50 (nM) or max inhibition (%) at 0.5 μM. A general note: ADP-Glo first removes unused ATP, then detects ADP through luciferase.
For a further experiment, the target named is PI3K (p110γ) (Homo sapiens, UniProt P48736). As to the kind of experiment: PI3Kγ assay (ADP-Glo Kinase Assay). As to conditions: recombinant enzyme; IC50 (nM) or max inhibition (%) at 0.5 μM.
A further experiment has as its target PI3K (p110δ/p85α) (Homo sapiens, UniProt O00329). The experiment is described as follows: PI3Kδ assay (ADP-Glo Kinase Assay). As to conditions: recombinant enzyme; IC50 (nM) or max inhibition (%) at 0.5 μM. As to the method:
Compounds disclosed herein were tested for inhibition of PI3Kδ kinase activity using commercial ADP-Glo™ Kinase Assay (Promega Corporation) and following the manufacture's instruction. Briefly, recombinant PI3K (p110δ/p85α) enzyme, lipid kinase substrate and a serial dilution of compounds disclosed herein were incubated for 0.5 hr at room temperature. ATP was added to initiate the kinase reaction. After incubation for 1 hr at room temperature, ADP-Glo™ reagent was added to terminate the kinase reaction and deplete the remaining ATP. After incubation for 1 hr at room temperature, kinase detection reagent was added to simultaneously convert ADP to ATP and allow the newly synthesized ATP to be measured using a luciferase/luciferin reaction. After incubation for 0.5 hr at room temperature, the luminescence generated was measured on a PHERAstar FS plate reader (BMG LABTECH). The residual enzyme activity in presence of increasing concentrations of compounds was calculated based on the luminescence. The IC50 for each compound was derived from fitting the data to the four-parameter logistic equation by Graphpad Prism software.

Where only a bound is given, the exact number is not on record here.

PI3K (p110β/p85α), sequence (P42338 whole entry): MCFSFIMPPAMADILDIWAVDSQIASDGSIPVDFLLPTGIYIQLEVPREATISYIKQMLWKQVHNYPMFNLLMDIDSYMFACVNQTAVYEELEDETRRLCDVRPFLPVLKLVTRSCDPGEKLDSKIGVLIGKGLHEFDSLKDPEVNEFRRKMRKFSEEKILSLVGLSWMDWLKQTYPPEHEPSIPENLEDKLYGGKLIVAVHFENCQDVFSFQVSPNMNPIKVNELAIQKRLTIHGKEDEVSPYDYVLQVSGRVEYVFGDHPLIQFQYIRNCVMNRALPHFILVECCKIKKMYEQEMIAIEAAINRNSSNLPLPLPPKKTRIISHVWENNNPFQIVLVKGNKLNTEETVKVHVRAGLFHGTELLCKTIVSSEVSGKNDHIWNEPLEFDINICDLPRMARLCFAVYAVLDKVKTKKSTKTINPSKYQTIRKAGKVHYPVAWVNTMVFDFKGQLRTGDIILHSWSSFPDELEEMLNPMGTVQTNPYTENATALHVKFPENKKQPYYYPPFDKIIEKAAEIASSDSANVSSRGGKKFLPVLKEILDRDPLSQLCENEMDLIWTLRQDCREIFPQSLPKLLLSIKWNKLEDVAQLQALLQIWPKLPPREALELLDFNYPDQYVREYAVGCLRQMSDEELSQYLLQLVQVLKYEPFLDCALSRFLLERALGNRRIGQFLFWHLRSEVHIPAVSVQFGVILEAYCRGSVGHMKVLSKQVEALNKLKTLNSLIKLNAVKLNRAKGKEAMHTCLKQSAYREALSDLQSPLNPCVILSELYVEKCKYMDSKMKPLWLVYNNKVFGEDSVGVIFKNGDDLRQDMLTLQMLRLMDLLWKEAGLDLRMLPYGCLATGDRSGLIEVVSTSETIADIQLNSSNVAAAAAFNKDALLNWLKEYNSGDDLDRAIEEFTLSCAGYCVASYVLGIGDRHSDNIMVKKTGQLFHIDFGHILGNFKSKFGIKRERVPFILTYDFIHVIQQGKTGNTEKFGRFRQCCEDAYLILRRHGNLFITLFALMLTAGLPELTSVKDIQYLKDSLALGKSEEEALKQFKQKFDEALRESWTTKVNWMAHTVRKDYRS
PI3K (p110β/p85α), sequence (P27986 whole entry partner): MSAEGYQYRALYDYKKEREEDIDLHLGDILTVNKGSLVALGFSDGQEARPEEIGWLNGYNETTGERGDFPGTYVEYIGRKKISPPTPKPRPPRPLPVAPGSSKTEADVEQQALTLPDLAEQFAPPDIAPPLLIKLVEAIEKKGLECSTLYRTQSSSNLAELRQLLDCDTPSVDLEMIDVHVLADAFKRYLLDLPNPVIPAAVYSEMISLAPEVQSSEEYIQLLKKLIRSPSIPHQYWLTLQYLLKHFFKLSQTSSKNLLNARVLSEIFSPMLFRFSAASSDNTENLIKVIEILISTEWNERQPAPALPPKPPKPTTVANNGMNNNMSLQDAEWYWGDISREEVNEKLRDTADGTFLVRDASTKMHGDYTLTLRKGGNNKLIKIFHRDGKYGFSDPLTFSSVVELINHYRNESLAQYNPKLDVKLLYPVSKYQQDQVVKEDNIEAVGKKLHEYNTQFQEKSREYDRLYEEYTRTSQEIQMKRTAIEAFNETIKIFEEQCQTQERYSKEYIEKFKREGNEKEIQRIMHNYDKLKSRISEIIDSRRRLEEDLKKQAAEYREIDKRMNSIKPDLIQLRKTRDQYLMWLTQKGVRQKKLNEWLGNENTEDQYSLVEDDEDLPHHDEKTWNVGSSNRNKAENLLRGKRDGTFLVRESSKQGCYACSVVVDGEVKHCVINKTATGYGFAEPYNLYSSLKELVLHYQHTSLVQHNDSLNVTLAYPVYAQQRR
PI3K (p110δ/p85α), sequence (O00329 whole entry): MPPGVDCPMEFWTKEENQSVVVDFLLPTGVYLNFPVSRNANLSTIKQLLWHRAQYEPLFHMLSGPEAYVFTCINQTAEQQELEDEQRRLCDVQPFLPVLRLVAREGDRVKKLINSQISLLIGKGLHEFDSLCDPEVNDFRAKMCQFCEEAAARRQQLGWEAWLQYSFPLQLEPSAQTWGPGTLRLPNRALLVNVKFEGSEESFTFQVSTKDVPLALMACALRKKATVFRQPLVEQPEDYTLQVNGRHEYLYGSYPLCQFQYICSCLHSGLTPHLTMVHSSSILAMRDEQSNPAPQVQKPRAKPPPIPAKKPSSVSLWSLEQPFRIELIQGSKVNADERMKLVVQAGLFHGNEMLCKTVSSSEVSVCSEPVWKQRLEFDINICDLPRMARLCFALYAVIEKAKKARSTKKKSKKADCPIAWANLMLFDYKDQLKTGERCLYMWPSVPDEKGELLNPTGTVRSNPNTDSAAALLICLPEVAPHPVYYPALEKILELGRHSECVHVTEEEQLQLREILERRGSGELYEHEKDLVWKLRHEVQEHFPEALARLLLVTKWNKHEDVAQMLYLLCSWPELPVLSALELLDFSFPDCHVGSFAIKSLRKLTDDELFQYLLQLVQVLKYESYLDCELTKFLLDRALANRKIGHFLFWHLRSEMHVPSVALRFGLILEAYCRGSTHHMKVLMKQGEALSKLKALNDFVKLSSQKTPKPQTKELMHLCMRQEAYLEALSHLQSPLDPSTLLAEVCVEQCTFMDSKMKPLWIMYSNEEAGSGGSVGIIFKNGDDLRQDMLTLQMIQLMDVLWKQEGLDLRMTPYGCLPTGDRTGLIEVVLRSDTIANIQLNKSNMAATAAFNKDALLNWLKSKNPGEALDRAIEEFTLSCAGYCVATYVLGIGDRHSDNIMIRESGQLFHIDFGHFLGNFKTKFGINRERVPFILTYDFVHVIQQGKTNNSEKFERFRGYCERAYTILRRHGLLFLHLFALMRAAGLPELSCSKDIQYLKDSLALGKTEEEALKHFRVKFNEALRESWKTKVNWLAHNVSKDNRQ
PI3K (p110δ/p85α), sequence (P27986 whole entry partner): as the sequence (P27986 whole entry partner) above
PI3K (p110α/p85α), sequence (P42336 whole entry): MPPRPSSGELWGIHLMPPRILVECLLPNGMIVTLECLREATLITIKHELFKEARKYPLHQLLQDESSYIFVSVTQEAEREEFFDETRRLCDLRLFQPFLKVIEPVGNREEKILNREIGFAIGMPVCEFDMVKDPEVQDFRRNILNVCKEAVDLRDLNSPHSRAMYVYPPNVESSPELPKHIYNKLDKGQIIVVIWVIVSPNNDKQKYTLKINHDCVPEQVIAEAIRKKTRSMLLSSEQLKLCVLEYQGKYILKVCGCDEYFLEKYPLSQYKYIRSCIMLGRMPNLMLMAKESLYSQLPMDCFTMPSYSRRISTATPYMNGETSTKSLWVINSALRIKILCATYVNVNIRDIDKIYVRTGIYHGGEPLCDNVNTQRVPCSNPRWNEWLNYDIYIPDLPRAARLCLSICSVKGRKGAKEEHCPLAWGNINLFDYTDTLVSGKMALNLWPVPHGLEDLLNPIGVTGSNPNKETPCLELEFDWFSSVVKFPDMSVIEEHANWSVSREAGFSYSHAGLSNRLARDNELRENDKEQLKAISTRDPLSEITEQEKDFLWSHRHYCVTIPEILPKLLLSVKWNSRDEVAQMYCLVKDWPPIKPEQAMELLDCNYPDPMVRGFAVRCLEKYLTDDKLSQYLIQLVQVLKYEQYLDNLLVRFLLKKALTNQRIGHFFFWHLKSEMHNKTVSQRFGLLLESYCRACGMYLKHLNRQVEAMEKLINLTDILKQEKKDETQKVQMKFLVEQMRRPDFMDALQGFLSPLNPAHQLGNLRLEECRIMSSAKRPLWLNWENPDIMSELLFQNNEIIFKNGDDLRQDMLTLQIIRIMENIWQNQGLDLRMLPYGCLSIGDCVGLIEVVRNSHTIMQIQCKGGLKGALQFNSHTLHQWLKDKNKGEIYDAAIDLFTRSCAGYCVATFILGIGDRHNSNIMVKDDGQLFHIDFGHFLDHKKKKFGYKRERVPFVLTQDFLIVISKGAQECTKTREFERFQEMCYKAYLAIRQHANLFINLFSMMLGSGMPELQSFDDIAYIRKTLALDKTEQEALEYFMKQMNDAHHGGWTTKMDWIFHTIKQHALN
PI3K (p110α/p85α), sequence (P27986 whole entry partner): as the sequence (P27986 whole entry partner) above
PI3K (p110γ), sequence (P48736 whole entry): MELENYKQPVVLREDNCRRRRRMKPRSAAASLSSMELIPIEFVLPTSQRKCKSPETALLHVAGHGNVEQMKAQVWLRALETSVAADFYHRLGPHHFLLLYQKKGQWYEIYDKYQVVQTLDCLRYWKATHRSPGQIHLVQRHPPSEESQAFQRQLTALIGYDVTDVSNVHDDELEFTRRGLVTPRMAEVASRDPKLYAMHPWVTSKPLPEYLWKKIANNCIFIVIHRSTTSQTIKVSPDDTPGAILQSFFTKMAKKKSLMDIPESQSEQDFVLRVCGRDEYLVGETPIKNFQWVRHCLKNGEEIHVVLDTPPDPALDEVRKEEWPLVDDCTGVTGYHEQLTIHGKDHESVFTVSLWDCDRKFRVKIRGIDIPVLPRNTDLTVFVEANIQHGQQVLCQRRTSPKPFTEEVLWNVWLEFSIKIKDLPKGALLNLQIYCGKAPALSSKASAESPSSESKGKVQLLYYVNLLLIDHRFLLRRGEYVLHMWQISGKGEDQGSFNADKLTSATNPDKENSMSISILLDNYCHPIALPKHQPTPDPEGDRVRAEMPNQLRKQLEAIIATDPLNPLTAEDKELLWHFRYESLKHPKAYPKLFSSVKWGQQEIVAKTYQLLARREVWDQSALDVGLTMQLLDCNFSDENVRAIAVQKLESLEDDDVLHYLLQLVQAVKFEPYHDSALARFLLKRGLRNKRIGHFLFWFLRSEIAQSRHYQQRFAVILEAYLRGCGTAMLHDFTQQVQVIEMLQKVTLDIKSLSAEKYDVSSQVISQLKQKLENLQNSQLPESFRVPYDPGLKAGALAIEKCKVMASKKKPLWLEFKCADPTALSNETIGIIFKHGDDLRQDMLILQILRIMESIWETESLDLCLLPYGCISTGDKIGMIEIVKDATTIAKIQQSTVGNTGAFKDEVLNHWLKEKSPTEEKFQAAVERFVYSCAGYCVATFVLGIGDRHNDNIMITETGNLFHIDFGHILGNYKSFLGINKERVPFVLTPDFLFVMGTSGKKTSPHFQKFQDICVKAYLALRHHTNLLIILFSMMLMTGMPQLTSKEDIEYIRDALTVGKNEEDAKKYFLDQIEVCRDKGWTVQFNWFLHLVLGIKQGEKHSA

For `COCCNC(=O)c1c(F)c(Cl)cc(C(C)c2nc(C)c3c(N)nccn23)c1OC(C)C` (centres unmarked) [Compound 8, 3-(1-(8-amino-1-methylimidazo[1,5-a]pyrazin-3-yl)ethyl)-5-chloro-6-fluoro-2-isopropoxy-N-(2-methoxyethyl)benzamide], the 50% inhibitory concentration (IC50) on PI3K (p110β/p85α) is 16 µM; on PI3K (p110α/p85α), 49000 nM; on PI3K (p110γ), 6800 nM; at PI3K (p110δ/p85α), 2.3 nM.
Take `Cc1nc(C(C)c2cc(Cl)c(F)c(C(=O)NC[C@@H](C)O)c2OC(C)C)n2ccnc(N)c12` (stereo partly drawn) [Compound 9, 3-(1-(8-amino-1-methylimidazo[1,5-a]pyrazin-3-yl)ethyl)-5-chloro-6-fluoro-N-((R)-2-hydroxypropyl)-2-isopropoxybenzamide]: the IC50 was determined as 18 µM at PI3K (p110β/p85α), 43000 nM at PI3K (p110α/p85α), 9200 nM at PI3K (p110γ) and 2.9 nM on PI3K (p110δ/p85α).
For `Cc1nc(C(C)c2cc(Cl)c(F)c(C(=O)NCC3(O)CC3)c2OC(C)C)n2ccnc(N)c12` (centres unmarked) [Compound 10, 3-(1-(8-amino-1-methylimidazo[1,5-a]pyrazin-3-yl)ethyl)-5-chloro-6-fluoro-N-((1-hydroxycyclopropyl)methyl)-2-isopropoxybenzamide] the same measures were 22 µM, 34000 nM, 9000 nM and 3 nM.
In the case of `Cc1nc(C(C)c2cc(Cl)c(F)c(C(=O)NC3CC3)c2OC(C)C)n2ccnc(N)c12` (centres unmarked) [Compound 11, 3-(1-(8-amino-1-methylimidazo[1,5-a]pyrazin-3-yl)ethyl)-5-chloro-N-cyclopropyl-6-fluoro-2-isopropoxybenzamide], the IC50 came to 6.2 µM at PI3K (p110β/p85α), 31000 nM at PI3K (p110α/p85α), 7300 nM at PI3K (p110γ) and 2 nM at PI3K (p110δ/p85α).
For `Cc1nc(C(C)c2cc(Cl)c(F)c(C(=O)Nc3ccccc3)c2OC(C)C)n2ccnc(N)c12` (centres unmarked) [Compound 12, 3-(1-(8-amino-1-methylimidazo[1,5-a]pyrazin-3-yl)ethyl)-5-chloro-6-fluoro-2-isopropoxy-N-phenylbenzamide] the same measures were over 50 µM, over 50000 nM, 14000 nM and 3.7 nM.
On to `CCOCC1(NC(=O)c2c(F)c(Cl)cc([C@H](C)c3nc(C)c4c(N)nccn34)c2OC(C)C)CC1` [Compound 15, (S)-3-(1-(8-amino-1-methylimidazo[1,5-a]pyrazin-3-yl)ethyl)-5-chloro-N-(1-(ethoxymethyl)cyclopropyl)-6-fluoro-2-isopropoxybenzamide], for which the IC50 on PI3K (p110β/p85α) is over 50 µM; at PI3K (p110α/p85α) it was 36000 nM; on PI3K (p110γ) it was 6700 nM; on PI3K (p110δ/p85α) it was 1.8 nM.
`Cc1nc([C@@H](C)c2cc(Cl)c(F)c(C(=O)NCCN(C)C)c2OC(C)C)n2ccnc(N)c12` [Compound 16, (S)-3-(1-(8-amino-1-methylimidazol[1,5-a]pyrazin-3-yl)ethyl)-5-chloro-N-(2-(dimethylamino)ethyl)-6-fluoro-2-isopropoxybenzamide]: the half-maximal inhibitory concentration (IC50) on PI3K (p110β/p85α) was found to be 17 µM; at PI3K (p110α/p85α), 20000 nM; at PI3K (p110γ) it was 11000 nM; on PI3K (p110δ/p85α), 4 nM.
Regarding `COC[C@@H]1CCCN1C(=O)c1c(F)c(Cl)cc([C@H](C)c2nc(C)c3c(N)nccn23)c1OC(C)C` [Compound 17, (3-((S)-1-(8-amino-1-methylimidazo[1,5-a]pyrazin-3-yl)ethyl)-5-chloro-6-fluoro-2-isopropoxyphenyl)((S)-2-(methoxymethyl)pyrrolidin-1-yl)methanone], the IC50 on PI3K (p110β/p85α) was 72 µM; on PI3K (p110α/p85α) it was 77000 nM; on PI3K (p110γ), 14000 nM; on PI3K (p110δ/p85α), 3.8 nM.
The matching figures for `Cc1nc([C@@H](C)c2cc(Cl)c(F)c(C(=O)Nc3ccc(F)cc3)c2OC(C)C)n2ccnc(N)c12` [Compound 18, (S)-3-(1-(8-amino-1-methylimidazo[1,5-a]pyrazin-3-yl)ethyl)-5-chloro-6-fluoro-N-(4-fluorophenyl)-2-isopropoxybenzamide]: 12 µM, 19000 nM, 6500 nM and 2.4 nM.
Consider `COC1CCN(C(=O)c2c(F)c(Cl)cc([C@H](C)c3nc(C)c4c(N)nccn34)c2OC(C)C)CC1` [Compound 19, (S)-(3-(1-(8-amino-1-methylimidazo[1,5-a]pyrazin-3-yl)ethyl)-5-chloro-6-fluoro-2-isopropoxyphenyl)(4-methoxypiperidin-1-yl)methanone], for which the IC50 on PI3K (p110β/p85α) amounted to 60 µM; on PI3K (p110α/p85α) it was 33000 nM; on PI3K (p110γ), 10000 nM; at PI3K (p110δ/p85α), 2 nM.
The matching figures for `Cc1nc([C@@H](C)c2cc(Cl)c(F)c(C(=O)N[C@@H](C)c3ccccc3)c2OC(C)C)n2ccnc(N)c12` [Compound 21, 3-((S)-1-(8-amino-1-methylimidazo[1,5-a]pyrazin-3-yl)ethyl)-5-chloro-6-fluoro-2-isopropoxy-N-((S)-1-phenylethyl)benzamide]: 28 µM, 33000 nM, 3900 nM and 1.4 nM.
For the compound `Cc1nc([C@@H](C)c2cc(Cl)c(F)c(C(=O)NC[C@@H]3CCCO3)c2OC(C)C)n2ccnc(N)c12` [Compound 24, 3-((S)-1-(8-amino-1-methylimidazo[1,5-a]pyrazin-3-yl)ethyl)-5-chloro-6-fluoro-2-isopropoxy-N-(((S)-tetrahydrofuran-2-yl)methyl)benzamide], the 50% inhibitory concentration (IC50) was 16 µM at PI3K (p110β/p85α), 36000 nM on PI3K (p110α/p85α), 5800 nM on PI3K (p110γ) and 1.6 nM on PI3K (p110δ/p85α).
Take `Cc1nc([C@@H](C)c2cc(Cl)c(F)c(C(=O)N[C@H]3CCC[C@H]3O)c2OC(C)C)n2ccnc(N)c12` [Compound 25, 3-((S)-1-(8-amino-1-methylimidazo[1,5-a]pyrazin-3-yl)ethyl)-5-chloro-6-fluoro-N-((1S,2R)-2-hydroxycyclopentyl)-2-isopropoxybenzamide]: the IC50 at PI3K (p110β/p85α) was 8.7 µM; on PI3K (p110α/p85α), 24000 nM; on PI3K (p110γ) it was 6000 nM; at PI3K (p110δ/p85α), 1.9 nM.
The matching figures for `Cc1nc([C@@H](C)c2cc(Cl)c(F)c(C(=O)NCCC3CCOCC3)c2OC(C)C)n2ccnc(N)c12` [Compound 26, (S)-3-(1-(8-amino-1-methylimidazol[1,5-a]pyrazin-3-yl)ethyl)-5-chloro-6-fluoro-2-isopropoxy-N-(2-(tetrahydro-2H-pyran-4-yl)ethyl)benzamide]: 17 µM, 24000 nM, 6500 nM and 0.86 nM.
`CNC(=O)c1c(F)c(Cl)cc([C@H](C)c2nc(C)c3c(N)nccn23)c1OC(C)C` [Compound 27, (S)-3-(1-(8-amino-1-methylimidazo[1,5-a]pyrazin-3-yl)ethyl)-5-chloro-6-fluoro-2-isopropoxy-N-methylbenzamide]: the IC50 is 3 µM at PI3K (p110β/p85α), 32000 nM on PI3K (p110α/p85α), 3900 nM on PI3K (p110γ) and 0.93 nM on PI3K (p110δ/p85α).
Take `CCNC(=O)c1c(F)c(Cl)cc([C@H](C)c2nc(C)c3c(N)nccn23)c1OC(C)C` [Compound 28, (S)-3-(1-(8-amino-1-methylimidazo[1,5-a]pyrazin-3-yl)ethyl)-5-chloro-6-fluoro-2-isopropoxy-N-ethyl-benzamide]: the 50% inhibitory concentration (IC50) at PI3K (p110β/p85α) stood at 6.8 µM; at PI3K (p110α/p85α) it was 24000 nM; at PI3K (p110γ) it was 4800 nM; on PI3K (p110δ/p85α), 1.2 nM.
As for `Cc1nc([C@@H](C)c2cc(Cl)c(F)c(C(=O)NCC3CCN(C)CC3)c2OC(C)C)n2ccnc(N)c12` [Compound 30, (S)-3-(1-(8-amino-1-methylimidazo[1,5-a]pyrazin-3-yl)ethyl)-5-chloro-6-fluoro-2-isopropoxy-N-((1-methylpiperidin-4-yl)methyl)benzamide], the IC50 on PI3K (p110β/p85α) amounted to 14 µM; on PI3K (p110α/p85α), 17000 nM; on PI3K (p110γ), 7700 nM; at PI3K (p110δ/p85α) it was 0.97 nM.
For the compound `Cc1nc([C@@H](C)c2cc(Cl)c(F)c(C(=O)NC[C@H]3CCCO3)c2OC(C)C)n2ccnc(N)c12` [Compound 31, 3-((S)-1-(8-amino-1-methylimidazo[1,5-a]pyrazin-3-yl)ethyl)-5-chloro-6-fluoro-2-isopropoxy-N-(((R)-tetrahydrofuran-2-yl)methyl)benzamide], the half-inhibitory concentration (IC50) on PI3K (p110β/p85α) was 16 µM; on PI3K (p110α/p85α), 25000 nM; at PI3K (p110γ) it was 6200 nM; on PI3K (p110δ/p85α), 3.1 nM.
For `Cc1nc([C@@H](C)c2cc(Cl)c(F)c(C(=O)NCc3ccccn3)c2OC(C)C)n2ccnc(N)c12` [Compound 33, (S)-3-(1-(8-amino-1-methylimidazo[1,5-a]pyrazin-3-yl)ethyl)-5-chloro-6-fluoro-2-isopropoxy-N-(pyridin-2-ylmethyl)benzamide], the IC50 came to 13 µM on PI3K (p110β/p85α), 9300 nM on PI3K (p110α/p85α), 2200 nM on PI3K (p110γ) and 1.3 nM on PI3K (p110δ/p85α).
On to `Cc1nc([C@@H](C)c2cc(Cl)c(F)c(C(=O)NC[C@H]3CCOC3)c2OC(C)C)n2ccnc(N)c12` [Compound 34, 3-((S)-1-(8-amino-1-methylimidazo[1,5-a]pyrazin-3-yl)ethyl)-5-chloro-6-fluoro-2-isopropoxy-N-(((R)-tetrahydrofuran-3-yl)methyl)benzamide], for which the IC50 on PI3K (p110β/p85α) turned out to be 11 µM; on PI3K (p110α/p85α) it was 36000 nM; on PI3K (p110γ), 3200 nM; on PI3K (p110δ/p85α), 1.4 nM.

In general, IC50 refers to the concentration needed to halve the response being measured.
